For 42 compounds, pKi and Intrinsic activity results are on record in ChEMBL document CHEMBL3879907, “8-azabicyclo[3.2.1]octane compounds as mu opioid receptor antagonists” (2014).

The target in experiment [1] is Delta-type opioid receptor (Homo sapiens, UniProt P41143). Put plainly: Displacement of [3H]-diprenorphine from human delta opioid receptor expressed in cell membranes. A general note: In a radioligand displacement assay an active substance lowers the binding of a labelled ligand.
Experiment [2] addresses Kappa-type opioid receptor (Cavia porcellus, UniProt P41144). Put plainly: Displacement of [3H]-diprenorphine from guinea pig kappa opioid receptor expressed in CHOK1 cell membranes. To be noted: cho-k1.
For experiment [3], the target named is Mu-type opioid receptor (Homo sapiens) (UniProt P35372). Put plainly: Intrinsic activity at human mu opioid receptor expressed in CHOK1 cell membranes at 0.00001 to 20 uM after 30 mins by GTP-Eu nucleotide exchange assay relative to DAMGO. Type of experiment: functional. To be noted: CHO-K1.

Where only a bound is given, the exact number is not on record here.

Mu-type opioid receptor (Homo sapiens), sequence (P35372 whole entry): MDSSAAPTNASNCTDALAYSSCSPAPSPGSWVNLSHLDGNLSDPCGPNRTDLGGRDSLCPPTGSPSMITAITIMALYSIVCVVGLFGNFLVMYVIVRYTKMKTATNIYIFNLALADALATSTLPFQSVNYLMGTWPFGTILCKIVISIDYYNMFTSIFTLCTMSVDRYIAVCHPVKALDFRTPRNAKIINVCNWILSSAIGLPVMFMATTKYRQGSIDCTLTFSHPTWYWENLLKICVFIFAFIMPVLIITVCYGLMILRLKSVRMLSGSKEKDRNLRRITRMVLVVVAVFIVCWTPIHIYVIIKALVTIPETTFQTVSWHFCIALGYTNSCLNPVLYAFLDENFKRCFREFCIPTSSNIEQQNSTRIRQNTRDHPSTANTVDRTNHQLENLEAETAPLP
Kappa-type opioid receptor, sequence (P41144 whole entry): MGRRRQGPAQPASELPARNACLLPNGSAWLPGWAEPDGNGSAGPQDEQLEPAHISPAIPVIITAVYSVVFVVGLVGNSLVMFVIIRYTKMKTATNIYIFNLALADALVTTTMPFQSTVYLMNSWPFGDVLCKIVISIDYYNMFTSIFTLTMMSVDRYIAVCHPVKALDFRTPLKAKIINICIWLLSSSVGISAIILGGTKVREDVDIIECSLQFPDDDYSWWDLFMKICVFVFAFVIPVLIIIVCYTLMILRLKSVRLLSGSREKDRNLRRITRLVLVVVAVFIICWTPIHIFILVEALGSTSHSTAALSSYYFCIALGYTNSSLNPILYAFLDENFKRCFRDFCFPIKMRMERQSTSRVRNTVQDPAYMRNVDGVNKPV
Delta-type opioid receptor, sequence (P41143 whole entry): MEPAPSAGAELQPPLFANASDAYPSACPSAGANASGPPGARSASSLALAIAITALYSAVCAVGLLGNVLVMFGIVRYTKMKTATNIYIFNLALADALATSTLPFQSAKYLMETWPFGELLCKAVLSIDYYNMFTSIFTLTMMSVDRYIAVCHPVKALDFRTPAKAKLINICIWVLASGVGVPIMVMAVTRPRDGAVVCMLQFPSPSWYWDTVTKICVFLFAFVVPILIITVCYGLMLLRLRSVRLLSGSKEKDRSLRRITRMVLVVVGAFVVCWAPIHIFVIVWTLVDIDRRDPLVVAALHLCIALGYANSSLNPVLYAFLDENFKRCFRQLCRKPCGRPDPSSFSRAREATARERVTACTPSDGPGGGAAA

With `C[C@H](O)C(=O)N(CCN1[C@@H]2CC[C@H]1C[C@@H](c1cccc(C(N)=O)c1)C2)CC1CCC1.O=C(O)C(F)(F)F`, the pKi in experiment [1] and in experiment [2] was 7 to 10.5 in each case. The compound also gave an Intrinsic activity in experiment [3] of under 40%.

On to `NC(=O)c1cccc([C@H]2C[C@H]3CC[C@@H](C2)N3CCN(CC2CCCCC2)C(=O)CCC(=O)O)c1`, for which the pKi in experiment [1] and in experiment [2] was 7 to 10.5 throughout. In experiment [3], the Intrinsic activity is under 40%.

As to `CS(=O)(=O)CC(=O)N(CCN1[C@@H]2CC[C@H]1C[C@@H](c1cccc(C(N)=O)c1)C2)Cc1ccc(C(F)(F)F)cc1.O=C(O)C(F)(F)F`, the pKi in experiment [1] and in experiment [2] was 7 to 10.5 each time. The compound also gave an Intrinsic activity in experiment [3] of under 40%.

In the case of `O=C(O)CC1(CC(=O)N(CCN2[C@@H]3CC[C@H]2C[C@@H](c2cccc(O)c2)C3)CC2CCCCC2)CCCCC1`, the pKi in experiment [1] and in experiment [2] was 7 to 10.5 each time. This compound also displayed an Intrinsic activity in experiment [3] of under 40%.

For `NC(=O)c1cccc([C@H]2C[C@H]3CC[C@@H](C2)N3CCN(CCC2CCCCC2)C(=O)CO)c1`, the negative logarithm of the Ki (pKi) in experiment [1] and in experiment [2] was 7 to 10.5 throughout. This compound also had an Intrinsic activity in experiment [3] of under 40%.

Take `CC(C)CC(=O)N(Cc1ccccc1)[C@H](C)CN1[C@@H]2CC[C@H]1C[C@@H](c1cccc(O)c1)C2`: the pKi in experiment [1] and in experiment [2] was 7 to 10.5 each time. The Intrinsic activity in experiment [3] is under 40%.

With `NC(=O)c1cccc([C@H]2C[C@H]3CC[C@@H](C2)N3CCCN(CC2CCCCC2)C(=O)CO)c1`, the negative-log Ki (pKi) in experiment [1] and in experiment [2] was 7 to 10.5 each time. In experiment [3], this compound displayed an Intrinsic activity of under 40%.

On to `CS(=O)(=O)CC(=O)N(CCc1ccc(O)cc1)CCN1[C@@H]2CC[C@H]1C[C@@H](c1cccc(C(N)=O)c1)C2.O=C(O)C(F)(F)F`, for which the pKi in experiment [1] and in experiment [2] was 7 to 10.5 each time. Moreover, in experiment [3], the Intrinsic activity was under 40%.

`O=C(NCc1ccc(F)cc1)N(CCN1[C@@H]2CC[C@H]1C[C@@H](c1cccc(O)c1)C2)CC1CCCCC1`: the pKi in experiment [1] and in experiment [2] was 7 to 10.5 throughout. The Intrinsic activity in experiment [3] is under 40%.

Regarding `CC(C)(C)OCC(=O)N(CCN1[C@@H]2CC[C@H]1C[C@@H](c1cccc(C(N)=O)c1)C2)Cc1c(F)cccc1F.O=C(O)C(F)(F)F`, the pKi in experiment [1] and in experiment [2] was 7 to 10.5 in each case. In experiment [3], this compound gave an Intrinsic activity of under 40%.

On to `CS(=O)(=O)Nc1cccc([C@H]2C[C@H]3CC[C@@H](C2)N3CCN(CC2CCCCC2)C(=O)CO)c1`, for which the pKi in experiment [1] and in experiment [2] was 7 to 10.5 in each case. The same compound registered an Intrinsic activity in experiment [3] of under 40%.

On to `NC(=O)c1cccc([C@H]2C[C@H]3CC[C@@H](C2)N3CCN(CC(F)(F)c2ccccc2)C(=O)[C@@H](O)CO)c1.O=C(O)C(F)(F)F`, for which the negative-log Ki (pKi) in experiment [1] and in experiment [2] was 7 to 10.5 throughout. Further, the Intrinsic activity in experiment [3] was under 40%.

With `CCC(CC)C(=O)N(Cc1ccccc1)[C@H](C)CN1[C@@H]2CC[C@H]1C[C@@H](c1cccc(O)c1)C2`, the pKi in experiment [1] and in experiment [2] was 7 to 10.5 throughout. The compound also returned an Intrinsic activity in experiment [3] of under 40%.

Regarding `CCC(=O)N(CCN1[C@@H]2CC[C@H]1C[C@@H](c1cccc(O)c1)C2)CC1CCCCC1`, the pKi in experiment [1] and in experiment [2] was 7 to 10.5 throughout. Moreover, the Intrinsic activity in experiment [3] was under 40%.

For the compound `C[C@H](CN1[C@@H]2CC[C@H]1C[C@@H](c1cccc(O)c1)C2)N(Cc1ccccc1)C(=O)CCC1CCCC1`, the pKi in experiment [1] and in experiment [2] was 7 to 10.5 throughout. Also, the Intrinsic activity in experiment [3] was under 40%.

Turning to `O=C(C1CCCC1)N(CCN1[C@@H]2CC[C@H]1C[C@@H](c1cccc(O)c1)C2)Cc1ccccc1` (single isomer, unassigned), the pKi in experiment [1] and in experiment [2] was 7 to 10.5 in each case. Moreover, in experiment [3], the Intrinsic activity was under 40%.

Regarding `NC(=O)c1cccc([C@H]2C[C@H]3CC[C@@H](C2)N3CCN(Cc2c(F)cccc2F)C(=O)[C@@H](O)CO)c1.O=C(O)C(F)(F)F`, the pKi in experiment [1] and in experiment [2] was 7 to 10.5 each time. Moreover, the Intrinsic activity in experiment [3] is under 40%.

With `CS(=O)(=O)CC(=O)N(CCN1[C@@H]2CC[C@H]1C[C@@H](c1cccc(C(N)=O)c1)C2)CC1CCCCC1`, the pKi in experiment [1] and in experiment [2] was 7 to 10.5 in each case. In experiment [3], the Intrinsic activity is under 40%.

Regarding `CC(C)(CO)C(=O)N(CCN1[C@@H]2CC[C@H]1C[C@@H](c1cccc(C(N)=O)c1)C2)CC1CCCC1.O=C(O)C(F)(F)F`, the pKi in experiment [1] and in experiment [2] was 7 to 10.5 in each case. The Intrinsic activity in experiment [3] was under 40%.

On to `CN(C)[C@@H](Cc1ccccc1)C(=O)N(CCN1[C@@H]2CC[C@H]1C[C@@H](c1cccc(O)c1)C2)CC1CCCCC1`, for which the pKi in experiment [1] and in experiment [2] was 7 to 10.5 each time. The compound also gave an Intrinsic activity in experiment [3] of under 40%.

Take `CS(=O)(=O)CC(=O)N(CCN1[C@@H]2CC[C@H]1C[C@@H](c1cccc(C(N)=O)c1)C2)Cc1ccc(F)cc1.O=C(O)C(F)(F)F`: the pKi in experiment [1] and in experiment [2] was 7 to 10.5 throughout. Moreover, the Intrinsic activity in experiment [3] is under 40%.

With `NC(=O)c1cccc([C@H]2C[C@H]3CC[C@@H](C2)N3CCN(CC2CCCCC2)C(=O)[C@H](O)CO)c1`, the pKi in experiment [1] and in experiment [2] was 7 to 10.5 throughout. For the same compound, the Intrinsic activity in experiment [3] was under 40%.

In the case of `NC(=O)c1cccc([C@H]2C[C@H]3CC[C@@H](C2)N3CCCN(Cc2ccccc2)C(=O)[C@H](O)CO)c1.O=C(O)C(F)(F)F`, the pKi in experiment [1] and in experiment [2] was 7 to 10.5 in each case. For the same compound, the Intrinsic activity in experiment [3] was under 40%.

For `O=C(CO)N(CCN1[C@@H]2CC[C@H]1C[C@@H](c1cccc(O)c1)C2)CC1CCCCC1`, the pKi in experiment [1] and in experiment [2] was 7 to 10.5 each time. Besides, the Intrinsic activity in experiment [3] is under 40%.

Turning to `CC(=O)N(CCN1[C@@H]2CC[C@H]1C[C@@H](c1cccc(O)c1)C2)Cc1c(F)cccc1F`, the pKi in experiment [1] and in experiment [2] was 7 to 10.5 each time. Further, in experiment [3], the Intrinsic activity is under 40%.

For the compound `NC(=O)c1cccc([C@H]2C[C@H]3CC[C@@H](C2)N3CCN(CC2CCC2)C(=O)CO)c1.O=C(O)C(F)(F)F`, the pKi in experiment [1] and in experiment [2] was 7 to 10.5 each time. In addition, the Intrinsic activity in experiment [3] was under 40%.

Consider `O=C(O)CC(=O)N(CCN1[C@@H]2CC[C@H]1C[C@@H](c1cccc(O)c1)C2)CC1CCCCC1`, for which the pKi in experiment [1] and in experiment [2] was 7 to 10.5 throughout. For the same compound, the Intrinsic activity in experiment [3] is under 40%.

Take `CN(C)S(=O)(=O)N(CCN1[C@@H]2CC[C@H]1C[C@@H](c1cccc(C(N)=O)c1)C2)CC1CCCCC1.O=C(O)C(F)(F)F`: the pKi in experiment [1] and in experiment [2] was 7 to 10.5 in each case. Further, in experiment [3], the Intrinsic activity is under 40%.

Consider `CC(CO)(CO)C(=O)N(CCN1[C@@H]2CC[C@H]1C[C@@H](c1cccc(C(N)=O)c1)C2)CC1CCCC1.O=C(O)C(F)(F)F`, for which the pKi in experiment [1] and in experiment [2] was 7 to 10.5 each time. The compound further yielded an Intrinsic activity in experiment [3] of under 40%.

For the compound `NC(=O)c1cccc([C@H]2C[C@H]3CC[C@@H](C2)N3CCN(CCc2cccc(F)c2)C(=O)CO)c1.O=C(O)C(F)(F)F`, the pKi in experiment [1] and in experiment [2] was 7 to 10.5 each time. Further, the Intrinsic activity in experiment [3] was under 40%.

Take `O=C(Nc1ccc2c(c1)OCO2)N(CCN1[C@@H]2CC[C@H]1C[C@@H](c1cccc(O)c1)C2)CC1CCCCC1`: the pKi in experiment [1] and in experiment [2] was 7 to 10.5 throughout. The compound further registered an Intrinsic activity in experiment [3] of under 40%.

On to `O=C(Cc1ccccc1)N(CCN1[C@@H]2CC[C@H]1C[C@@H](c1cccc(O)c1)C2)CC1CCCCC1`, for which the pKi in experiment [1] and in experiment [2] was 7 to 10.5 throughout. Besides, the Intrinsic activity in experiment [3] is under 40%.

`O=C(O)CCC(=O)N(CCN1[C@@H]2CC[C@H]1C[C@@H](c1cccc(O)c1)C2)Cc1c(F)cccc1F`: the pKi in experiment [1] and in experiment [2] was 7 to 10.5 each time. Moreover, the Intrinsic activity in experiment [3] was under 40%.

Consider `NC(=O)c1cccc([C@H]2C[C@H]3CC[C@@H](C2)N3CCN(CC2CCC2)C(=O)[C@H](O)CO)c1.O=C(O)C(F)(F)F`, for which the pKi in experiment [1] and in experiment [2] was 7 to 10.5 in each case. The Intrinsic activity in experiment [3] is under 40%.

For `CC(C)CC(=O)N(CCN1[C@@H]2CC[C@H]1C[C@@H](c1cccc(O)c1)C2)Cc1c(F)cccc1F`, the pKi in experiment [1] and in experiment [2] was 7 to 10.5 throughout. The compound further gave an Intrinsic activity in experiment [3] of under 40%.

As to `O=C(Nc1ccc(OC(F)F)cc1)N(CCN1[C@@H]2CC[C@H]1C[C@@H](c1cccc(O)c1)C2)CC1CCCCC1`, the negative logarithm of the Ki (pKi) in experiment [1] and in experiment [2] was 7 to 10.5 throughout. In addition, the Intrinsic activity in experiment [3] was under 40%.

`CC(C)(CO)C(=O)N(CCN1[C@@H]2CC[C@H]1C[C@@H](c1cccc(C(N)=O)c1)C2)CC1CCCCC1`: the pKi in experiment [1] and in experiment [2] was 7 to 10.5 in each case. Besides, the Intrinsic activity in experiment [3] was under 40%.

On to `C[C@H](CN1[C@@H]2CC[C@H]1C[C@@H](c1cccc(O)c1)C2)N(Cc1ccccc1)C(=O)Cc1ccccc1`, for which the pKi in experiment [1] and in experiment [2] was 7 to 10.5 each time. The Intrinsic activity in experiment [3] is under 40%.

For `CC(CO)(CO)C(=O)N(CCN1[C@@H]2CC[C@H]1C[C@@H](c1cccc(C(N)=O)c1)C2)CC1CCC(F)(F)CC1.O=C(O)C(F)(F)F`, the negative logarithm of the Ki (pKi) in experiment [1] and in experiment [2] was 7 to 10.5 each time. In experiment [3], the Intrinsic activity is under 40%.

As to `CC(C)(C(=O)N(CCN1[C@@H]2CC[C@H]1C[C@@H](c1cccc(C(N)=O)c1)C2)CC1CCC1)S(C)(=O)=O.O=C(O)C(F)(F)F`, the pKi in experiment [1] and in experiment [2] was 7 to 10.5 throughout. This compound also came in with an Intrinsic activity in experiment [3] of under 40%.

On to `NC(=O)c1cccc([C@H]2C[C@H]3CC[C@@H](C2)N3CCN(CC2CCCC2)C(=O)[C@@H](O)CO)c1.O=C(O)C(F)(F)F`, for which the negative-log Ki (pKi) in experiment [1] and in experiment [2] was 7 to 10.5 in each case. The Intrinsic activity in experiment [3] is under 40%.

For `NC(=O)c1cccc([C@H]2C[C@H]3CC[C@@H](C2)N3CCN(Cc2ccc(C(F)(F)F)cc2)C(=O)CO)c1.O=C(O)C(F)(F)F`, the pKi in experiment [1] and in experiment [2] was 7 to 10.5 in each case. The Intrinsic activity in experiment [3] is under 40%.
